# US6989435B2, “Compounds and methods to inhibit or augment an inflammatory response” (Cambridge University Technical Services Ltd., priority 1997, dated 2006)
# How the values were obtained:
# [1] = system: MIP1α induced THP-1 migration; test: Trans-well THP-1 migration assay, MIP1α as chemoattractant; type: cell-based, human; settings: Table 4(b); 100 μM peptide; n.s. = no statistically significant inhibition
# Experimental: FIG. 1 is a schematic of the trans-well migration assay. In most experiments, the peptide (wavy line) is added to the upper well with about 50,000 cells (O). The upper and lower wells are separated by a 5 μm or 8 μm pore size PVP-free membrane (- - - -). Chemokine (●) is added to the lower well. After 4 hours, the number of cells that have migrated through the membrane are measured (◯ in lower well).
# To determine whether an agent inhibits a chemokine-induced activity, such as macrophage recruitment, varying amounts of the agent are mixed with cells in the presence of a known chemoattractant. For example, a range of known concentrations of an agent, e.g., a chemokine peptide, is incubated with a defined number (e.g., 10^4-10^6) of human THP-1 monocyte cells in individual wells of the top compartment of a trans-well plate. […] A standard curve consisting of a two-fold dilution series of THP-1 cells (in 29 μl) is prepared to accurately quantify the number of cells that have migrated. […] Absorbance of converted dye is measured at a wavelength of 595 nm using an ELISA plate reader. The number of migrated cells in each well is then determined by interpolation of the standard curve (see also Imai et al., J. Biol. Chem., 272, 15036 (1997)). […]
# [2] = system: TGFβ1 induced THP-1 migration; test: Trans-well THP-1 migration assay, TGFβ1 as non-chemokine control chemoattractant; type: cell-based, human
# Experimental: Any method suitable for counting cells can be used, for example, counting with a hemocytometer, incubation of the cells with MTT (see above), or FACS analysis. A negative control assay is also performed, using TGF-β or another non-chemokine chemoattractant (e.g., IL1β or TNFα). To assess whether the agent is cytotoxic, the same concentrations of agent are incubated with THP-1 cells. Agents which 1) are not cytotoxic at levels which inhibit migration, 2) are ineffective at inhibiting the negative control-induced migration, and 3) reduce or inhibit chemokine-induced THP-1 migration, are agents which fall within the scope of the invention.
# For this assay, THP-1 cells were maintained at a density of 4×10^5 cells per ml in RPMI-1640 supplemented with 10% fetal calf serum+20 μM 2-mercaptoethanol. Chemotaxis was induced in a 96-well disposable chemotaxis chamber fitted with a […] polycarbonate filter (PVP free, ChemoTX, Neuroprobe Inc., Cabin John). Twenty-nine μl of chemoattractant (recombinant human chemokine; 50 ng/ml, i.e., 5.9 nM) or control (100 ng/ml TGFβ) was added to the lower compartment of each well. The framed filter was aligned with the holes in the corner of the filter frame and placed over the wells. Five×10^4 THP-1 cells in 25 μl of RPMI-1640 culture media were added to the upper compartment. Peptides were dissolved in Milli Q water and then serially diluted in culture medium. […]
# After incubation, the cells were gently removed from the top of the filter with a pipette, 20 μl of 20 mM EDTA in PBS was added into each top well, and the mixture was incubated for 20 minutes at 4° C. […] A standard curve was prepared to accurately quantify the number of THP-1 cells that had migrated. […] Absorbance of converted dye was measured at a wavelength of 595 nm using an ELISA plate reader. The number of cells that had migrated in each well was determined by interpolation of the standard curve.
# To investigate the receptor specificity of peptide 3 inhibition, the ED50 was determined for peptide 3(1-12)[MCP-1] […]
sequence,measurement,setting,value
EICADPKQKWVQ [Peptide 3],"Extent of inhibition of THP-1 migration at 100 μM, MIP1α",[1],99%
same,"Extent of inhibition of THP-1 migration at 100 μM, TGFβ1","[2]; Table 4(b), 100 μM peptide, n.s. = no statistically significant inhibition",n.s.
same,inhibition of TGF-beta induced THP-1 migration,[2]; even at 100 μM,did not significantly inhibit
